Measurements as given in patent US20220395511A1, “COMPOSITIONS AND METHODS FOR INCREASING CELL SURFACE OXYTOCIN RECEPTOR (OXTR)” (Washington University, priority 2021, published 2022).
“Also recorded” adds a separate entry of the source. Read-outs that look alike come from different tables or passages of the source.

Columns and labels:
[1] = biological target: T1, WT OXTR endogenously expressed in hTERT-HM cells (Homo sapiens, UniProt P30559); assay: Quantitative flow cytometry of cell surface HA-OXTR in hTERT-HM cells; type: cell-based; details: for decrease of baseline cell surface OXTR abundance: cycloheximide 25 μg/mL, brefeldin A 5 μg/mL
T1 construct: hTERT-immortalized human myometrial (hTERT-HM) cells, which endogenously express WT OXTR; endogenous in cells; host or cells: hTERT-HM (genome-edited: HA knock-in at the OXTR locus)
T1 sequence (P30559 1-389): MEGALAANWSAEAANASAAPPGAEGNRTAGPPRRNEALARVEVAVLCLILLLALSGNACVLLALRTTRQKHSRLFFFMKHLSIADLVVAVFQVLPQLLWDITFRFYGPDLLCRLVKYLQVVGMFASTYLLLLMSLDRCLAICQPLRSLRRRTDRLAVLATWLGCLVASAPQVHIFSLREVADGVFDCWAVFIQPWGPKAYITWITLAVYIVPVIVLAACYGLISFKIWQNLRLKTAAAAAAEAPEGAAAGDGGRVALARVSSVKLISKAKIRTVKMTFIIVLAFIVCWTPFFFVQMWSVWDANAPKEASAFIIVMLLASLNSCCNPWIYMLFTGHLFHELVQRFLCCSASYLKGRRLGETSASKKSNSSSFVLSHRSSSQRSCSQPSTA
Protocol: These experiments were performed in the hTERT-immortalized human myometrial cell line, which was modified to introduce an N-terminal HA tag upstream of OXTR. […] OXTR was quantified by performing flow cytometry with a fluorescent antibody against HA. TCOT=TC-OT 39 ((2S)—N-[[4-[(4,10-dihydro-1-methylpyrazolo[3,4-b][1,5]benzodiazepin-5(1H)-yl)carbonyl]-2-methylphenyl]methyl]-2-[(hexahydro-4-methyl-1H-1,4-diazepin-1-yl)thioxomethyl]-1-pyrrolidinecarboxamide), partial OXTR agonist. CON=conivaptan (N-[4-(2-methyl-4,5-dihydro-3H-imidazo[4,5-d][1]benzazepine-6-carbonyl)phenyl]-2-phenylbenzamide; also known as YM087), vasopressin inhibitor. TASP=TASP 0390325 (2-(3-Chloro-4-fluorophenyl)-N-(1-methylethyl)-6-[3-(4-morpholinyl)propoxy]-4-oxo-pyrido[2,3-d]pyrimidine-3(4H)-acetamide hydrochloride), vasopressin inhibitor. WAY=WAY 267464 (4-(3,5-Dihydroxybenzyl)-N-(2-methyl-4-[(1-methyl-4,10-dihydropyrazolo[3,4-b][1,5]benzodiazepin-5(1H)-yl)carbonyl]benzyl)piperazine-1-carboxamide), OXTR agonist. TOL=tolvaptan (N-(4-{[(5R)-7-Chloro-5-hydroxy-2,3,4,5-tetrahydro-1H-1-benzazepin-1-yl]carbonyl}-3-methylphenyl)-2-methylbenzamide; also known as OPC41061), vasopressin inhibitor. OPC=OPC 21268 (N-[3-[4-[[4-(3,4-dihydro-2-oxo-1(2H)-quinolinyl)-1-piperidinyl]carbonyl]phenoxy]propyl]-acetamide), vasopressin inhibitor. SSR=SSR 149415 ((2S,4R)-1-[(3R)-5-Chloro-1-[(2,4-dimethoxyphenyl)sulfonyl]-2,3-dihydro-3-(2-methoxyphenyl)-2-oxo-1H-indol-3-yl]-4-hydroxy-N,N-dimethyl-2-pyrrolidinecarboxamide), vasopressin inhibitor. SR=SR49059 ((2S)-1-[[(2R,3S)-5-Chloro-3-(2-chlorophenyl)-1-[(3,4-dimethoxyphenyl)sulfonyl]-2,3-dihydro-3-hydroxy-1H-indol-2-yl]carbonyl]-2-pyrrolidinecarboxamide), vasopressin inhibitor. L371=L371,257 (1-[1-[4-(1-acetylpiperidin-4-yl)oxy-2-methoxybenzoyl]piperidin-4-yl]-4H-3,1-benzoxazin-2-one), OXTR antagonist.
Because specific antibodies to OXTR are not commercially available, CRISPR-Cas9 was used to introduce an HA tag at the N-terminus of OXTR in the hTERT-HM cell line. […]
To determine the mechanism of action of SR49059 and L371,257, hTERT-HM cells were treated for 12 h with cycloheximide (25 μg/mL), which inhibits protein translation, and brefeldin A (5 μg/mL), which blocks protein transport from the endoplasmic reticulum to the Golgi.
The Genome Engineering and iPSC Center at Washington University in St Louis used CRISPR-Cas9 to introduce an HA tag at the N-terminus of the OXTR gene in hTERT-HM cells. After drug incubation, cells were detached with TrypLE Express (Thermo Fisher) before flow cytometry.

[2] = biological target: T2, OXTR (Homo sapiens, UniProt P30559); details: in words, cited from earlier work
T2 sequence (P30559 1-389): T1 sequence (P30559 1-389)

[3] = biological target: T3, WT OXTR in hTERT-HM cells (Homo sapiens, UniProt P30559); assay: Oxytocin-induced IP1 production in hTERT-HM cells; type: cell-based; details: for increase of maximal IP1 production: hTERT-HM, N=5 (FIG. 8D)
T3 construct: hTERT-immortalized human myometrial (hTERT-HM) cells, which endogenously express WT OXTR; endogenous in cells; host or cells: hTERT-HM
T3 sequence (P30559 1-389): T1 sequence (P30559 1-389)

[4] = biological target: T4, WT OXTR (Homo sapiens, UniProt P30559); assay: Quantitative flow cytometry of cell surface WT HA-OXTR-GFP in transfected HEK293T cells; type: cell-based; details: for more surface WT OXTR than vehicle-treated cells: HEK293T, WT HA-OXTR-GFP, 10 μM, 16 h
T4 construct: expressed in transfected cells; host or cells: HEK293T (transient)
T4 sequence (P30559 1-389): T1 sequence (P30559 1-389)

[5] = hTERT-HM, HA-OXTR, 10 μM, 16 h (overnight)

Cc1cc(C(=O)N2Cc3cnn(C)c3Nc3ccccc32)ccc1CNC(=O)N1CCC[C@H]1C(=S)N1CCCN(C)CC1 [TCOT39, (2S)-N-[[4-[(4,10-dihydro-1-methylpyrazolo[3,4-b][1,5]benzodiazepin-5(1H)-yl)carbonyl]-2-methylphenyl]methyl]-2-[(hexahydro-4-methyl-1H-1,4-diazepin-1-yl)thioxomethyl]-1-pyrrolidinecarboxamide]
effect on cell surface OXTR in hTERT-HM cells [1, 5]: decreased

C[C@@H]1C[C@@H]([C@H](O)CC2CC(=O)NC(=O)C2)C(=O)[C@@H](C)C1 [Cycloheximide]
decrease of baseline cell surface OXTR abundance ([1]; hTERT-HM, 12 h): 18%

C[C@H]1CCC/C=C/[C@@H]2C[C@H](O)C[C@H]2[C@H](O)/C=C/C(=O)O1 [brefeldin A]
decrease of baseline cell surface OXTR abundance ([1]; hTERT-HM, 12 h): 62%

Cc1ccccc1C(=O)Nc1ccc(C(=O)N2CCC[C@@H](O)c3cc(Cl)ccc32)c(C)c1 [OPC41061, N-(4-{[(5R)-7-Chloro-5-hydroxy-2,3,4,5-tetrahydro-1H-1-benzazepin-1-yl]carbonyl}-3-methylphenyl)-2-methylbenzamide]
effect on cell surface OXTR in hTERT-HM cells [1, 5]: increased

Cc1cc(C(=O)N2Cc3cnn(C)c3Nc3ccccc32)ccc1CNC(=O)N1CCN(Cc2cc(O)cc(O)c2)CC1 [WAY26746, 4-(3,5-Dihydroxybenzyl)-N-(2-methyl-4-[(1-methyl-4,10-dihydropyrazolo[3,4-b][1,5]benzodiazepin-5(1H)-yl)carbonyl]benzyl)piperazine-1-carboxamide]
effect on cell surface OXTR in hTERT-HM cells [1, 5]: no effect

CC(C)NC(=O)Cn1c(-c2ccc(F)c(Cl)c2)nc2ncc(OCCCN3CCOCC3)cc2c1=O.Cl [TASP0390325, 2-(3-Chloro-4-fluorophenyl)-N-(1-methylethyl)-6-[3-(4-morpholinyl)propoxy]-4-oxo-pyrido[2,3-d]pyrimidine-3(4H)-acetamide hydrochloride]
reported OXTR affinity ([2]; hydrochloride): extremely low affinity; also recorded: antagonist; low

Cc1nc2c([nH]1)CCN(C(=O)c1ccc(NC(=O)c3ccccc3-c3ccccc3)cc1)c1ccccc1-2 [YM087, N-[4-(2-methyl-4,5-dihydro-3H-imidazo[4,5-d][1]benzazepine-6-carbonyl)phenyl]-2-phenylbenzamide]
reported OXTR affinity [2]: medium OXTR affinity
effect on cell surface OXTR in hTERT-HM cells [1, 5]: significantly decreased

COc1ccc(S(=O)(=O)N2c3ccc(Cl)cc3[C@](O)(c3ccccc3Cl)[C@@H]2C(=O)N2CCC[C@H]2C(N)=O)cc1OC [SR49059, (2S)-1-[[(2R,3S)-5-Chloro-3-(2-chlorophenyl)-1-[(3,4-dimethoxyphenyl)sulfonyl]-2,3-dihydro-3-hydroxy-1H-indol-2-yl]carbonyl]-2-pyrrolidinecarboxamide]
increase of maximal IP1 production [3]: 37%
increase of maximal oxytocin response (IP1 accumulation) ([3]; human myometrial (hTERT-HM) cells, 10 μM overnight, N=3 (FIG. 2)): 12%
effect on cell surface WT OXTR ([4]; HEK293T transfected with WT OXTR): robustly increased
more surface WT OXTR than vehicle-treated cells [4]: 170%
reported OXTR affinity [2]: medium OXTR affinity
treatment time at which surface OXTR reached a plateau ([1]; hTERT-HM time course): 6 h
effect on cell surface OXTR in hTERT-HM cells [1, 5]: robustly increased
increase of cell surface OXTR abundance ([1]; hTERT-HM, 10 μM, 16 h): 2.3 fold
increase of surface OXTR localization after 4 h of treatment ([1]; hTERT-HM, 4 h): more than twofold
effect on cell surface OXTR in cells also treated with cycloheximide ([1]; hTERT-HM, 12 h, 10 μM with cycloheximide 25 μg/mL): no effect
effect on cell surface OXTR in cells also treated with brefeldin A ([1]; hTERT-HM, 12 h, with brefeldin A 5 μg/mL): no effect
surface OXTR localization at 48 h of treatment ([1]; hTERT-HM, 48 h): remained high

COc1cc(OC2CCN(C(C)=O)CC2)ccc1C(=O)N1CCC(N2C(=O)OCc3ccccc32)CC1 [L371,257, 1-[1-[4-(1-acetylpiperidin-4-yl)oxy-2-methoxybenzoyl]piperidin-4-yl]-4H-3,1-benzoxazin-2-one]
increase of maximal IP1 production [3]: 35%
more surface WT OXTR than vehicle-treated cells [4]: 170%
effect on cell surface OXTR in cells also treated with brefeldin A [1]: no effect
effect on cell surface OXTR in hTERT-HM cells [1]: greatest effect of all the candidate compounds
increase of cell surface OXTR abundance [1]: 2.9 fold
increase of surface OXTR in cells treated with cycloheximide [1]: 20%
increase of surface OXTR localization after 4 h of treatment [1]: more than twofold
surface OXTR localization at 48 h of treatment [1]: remained high
treatment time at which surface OXTR reached a plateau [1]: 6 h

CC(=O)NCCCOc1ccc(C(=O)N2CCC(N3C(=O)CCc4ccccc43)CC2)cc1 [OPC21268, N-[3-[4-[[4-(3,4-dihydro-2-oxo-1(2H)-quinolinyl)-1-piperidinyl]carbonyl]phenoxy]propyl]-acetamide]
reported OXTR affinity [2]: medium OXTR affinity

COc1ccc(S(=O)(=O)N2C(=O)[C@@](c3ccccc3OC)(N3C[C@H](O)C[C@H]3C(=O)N(C)C)c3cc(Cl)ccc32)c(OC)c1 [SSR149415, (2S,4R)-1-[(3R)-5-Chloro-1-[(2,4-dimethoxyphenyl)sulfonyl]-2,3-dihydro-3-(2-methoxyphenyl)-2-oxo-1H-indol-3-yl]-4-hydroxy-N,N-dimethyl-2-pyrrolidinecarboxamide]
reported OXTR affinity [2]: medium OXTR affinity
